Reference: patent US7943603B2, “Medical uses of a selective estrogen receptor modulator in combination with sex steroid precursors” (Endorecherche, Inc., priority 1998, dated 2011)
Several values for one entry are separate records, joined by “and”; a condition that tells them apart may be missing. Equal values may be shown once.

Test system: human ZR-75-1 breast tumor xenografts
Experiment: Growth of human ZR-75-1 breast tumor xenografts in OVX nude mice supplemented with estrone
Conditions: OVX+E1 0.5 μg nude mice, 9.5 months; for average tumor weight: E1 control 1.12±0.26

`CC1=C(c2ccc(OC(=O)C(C)(C)C)cc2)[C@H](c2ccc(OCCN3CCCCC3)cc2)Oc2cc(OC(=O)C(C)(C)C)ccc21` [EM-800, (+)-7-pivaloyloxy-3-(4′-pivaloyloxyphenyl)-4-methyl-2-(4″-(2′″-piperidinoethoxy)phenyl)-2H-benzopyran] was tested, and the “Complete response, (%)” value (EM-800 15 μg orally daily) was 29.4%, the “Complete response, number” value (EM-800 15 μg orally daily) was 5 and the “Partial response, (%)” value (EM-800 15 μg orally daily) was 5.9%. For the same compound, the “Partial response, number” value (EM-800 15 μg orally daily) was 1, the “Progression, (%)” value (EM-800 15 μg orally daily) was 35.3% and the “Progression, number” value (EM-800 15 μg orally daily) was 6. The “Stable response, (%)” value (EM-800 15 μg orally daily) was 29.4%, the “Stable response, number” value (EM-800 15 μg orally daily) was 5 and the “inhibition of estrogen-stimulated ZR-75-1 tumor size” value (from here on “inhibition”) (EM-800 15 μg orally daily) was 88% and 87.5%. For the same compound, the average tumor weight (EM-800 15 μg orally daily) was 0.08 ± 0.03 g, the “Complete response, (%)” value (EM-800 50 μg orally daily) was 25.0% and the “Complete response, number” value (EM-800 50 μg orally daily) was 4. For the same compound, the “Partial response, (%)” value (EM-800 50 μg orally daily) was 18.8%, the “Partial response, number” value (EM-800 50 μg orally daily) was 3 and the “Progression, (%)” value (EM-800 50 μg orally daily) was 25.0%. The “Progression, number” value (EM-800 50 μg orally daily) was 4, the “Stable response, (%)” value (EM-800 50 μg orally daily) was 31.2% and the “Stable response, number” value (EM-800 50 μg orally daily) was 5. The “inhibition” value (EM-800 50 μg orally daily) was 93% and 93.5%, the average tumor weight (EM-800 50 μg orally daily) was 0.03 ± 0.01 g and the “Complete response, (%)” value (EM-800 100 μg orally daily) was 50.0%. The “Complete response, number” value (EM-800 100 μg orally daily) was 8, the “Partial response, (%)” value (EM-800 100 μg orally daily) was 0 (0) % and the “Partial response, number” value (EM-800 100 μg orally daily) was 0 (0). For the same compound, the “Progression, (%)” value (EM-800 100 μg orally daily) was 31.2%, the “Progression, number” value (EM-800 100 μg orally daily) was 5 and the “Stable response, (%)” value (EM-800 100 μg orally daily) was 18.8%. For the same compound, the “Stable response, number” value (EM-800 100 μg orally daily) was 3, the “inhibition” value (EM-800 100 μg orally daily) was 94% and the average tumor weight (EM-800 100 μg orally daily) was 0.04 ± 0.03 g.
